This is an account of results in PubChem BioAssay AID608 (Sanford-Burnham Center for Chemical Genomics, 2007).

Activity calls are given as the source filed them. No rule for the calls is given here. A value given as a limit tells only on which side of the number the result lay.

For the experiment, the target named is Peptidyl-prolyl cis-trans isomerase FKBP1A (Homo sapiens) (UniProt P62942). Put plainly: small-molecule binding to FKBP12 – biophysical, NMR detection (AID 608). The conditions noted are these: purified FKBP12.
Chain of Peptidyl-prolyl cis-trans isomerase FKBP1A (Homo sapiens) (P62942 whole entry, looked up): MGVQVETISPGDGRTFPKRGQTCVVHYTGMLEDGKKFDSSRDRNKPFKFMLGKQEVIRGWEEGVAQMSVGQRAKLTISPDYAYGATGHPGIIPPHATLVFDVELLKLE
`O=C(Nc1nnc(-c2ccco2)o1)C1=COCCO1`: the Kd (commonly the equilibrium constant for the complex coming apart) was > 4 mM (inactive). Next, `Cc1cc(O)c(C=O)c(O)c1C(=O)O`: > 4 mM (inactive); `Cc1ccc(NS(=O)(=O)N2CCCCC2)cc1Cl`: “inactive”. On to `NCc1ccccc1N1CCCCC1`, for which the Kd is > 4 mM (inactive). Turning to `Cn1cccc1C(=O)NS(=O)(=O)c1ccccc1Cl`, the Kd was > 4 mM (inactive). Next, `COc1ccc([C@@H]2CC(=O)c3c(O)cc(O[C@@H]4O[C@H](CO[C@H]5O[C@@H](C)[C@H](O)[C@@H](O)[C@H]5O)[C@@H](O)[C@H](O)[C@H]4O)cc3O2)cc1O`: > 4 mM (inactive); `O=c1ccn(Cc2ccccc2)c(=O)[nH]1`: > 4 mM (inactive). In the case of `CS(=O)(=O)Cc1ccccc1` it was > 4 mM (inactive).

On to `NCc1ccc(CN2CCOCC2)cc1`, for which the Kd was > 4 mM (inactive). With `c1ccc(Cn2cccc2)nc1`, the Kd was > 4 mM (inactive). For the compound `CC(=O)N1CCc2cc(NC(=O)c3ccc(C)cc3)ccc21`, the Kd was > 4 mM (inactive). Next, `O=C(Cc1ccccc1)Nc1c[nH]c(=O)[nH]c1=O`: > 4 mM (inactive); `Nc1ncc2[nH]cnc2n1`: > 4 mM (inactive). Next, `CNC(=O)c1ccccc1-c1ccccc1`: > 4 mM (inactive); `O=C(Nc1ccon1)c1ccccc1Cl`: > 4 mM (inactive). On to `O=C1N=C(N2CCOCC2)S/C1=C\c1cccnc1`, for which the Kd is > 4 mM (inactive).

As for `O=C(O)C(CO)c1ccccc1` (stereo unspecified), the Kd was > 4 mM (inactive). In the case of `NC(=O)c1cc(N)cc(C(N)=O)c1` it was > 4 mM (inactive).

`CC(=O)c1c(O)cc(C)n(Cc2ccccc2)c1=O`: the Kd is > 4 mM (inactive). In the case of `Cc1cc(C(=O)Nc2sc(C)c(C)c2C#N)c(C)o1` it was > 4 mM (inactive).

With `O=C(NC1=NCCS1)c1ccc2snnc2c1`, the Kd is > 4 mM (inactive). Next, `OC1CSc2ncnn2C1` (stereo unspecified): > 4 mM (inactive). Next, `COc1cccc(N2CCNCC2)c1`: > 4 mM (inactive); `CCCc1cc2c(c(NC(C)=O)n1)c(=O)oc1ccccc12`: > 4 mM (inactive).

For the compound `Nc1nnc(SCc2ccc3c(c2)OCO3)s1`, the Kd is > 4 mM (inactive). Next, `COC(=O)C1[C@H]2C[C@H]3c4[nH]c5ccccc5c4CCN3C[C@@H]2CC[C@@H]1O` (stereo partly specified): > 4 mM (inactive); `CC(=O)Nc1ccc(NC(C)=O)cc1`: > 4 mM (inactive). In the case of `CC(=O)O[C@@H]1C[C@@]2(C)[C@H](c3ccoc3)C[C@H]3O[C@]32[C@]2(C)C(=O)C(O)=C3C(C)(C)C(=O)C=C[C@]3(C)C12` (stereo partly specified) it was > 4 mM (inactive). In the case of `Cc1cc(=O)n2[nH]c(COc3ccccc3)nc2n1` it was > 4 mM (inactive). On to `CC[C@H]1CN2CCc3cc(OC)c(OC)cc3C2C[C@@H]1CC1NCCc2cc(OC)c(OC)cc21` (stereo partly specified), for which the Kd is > 4 mM (inactive).

Consider `COc1ccc(C(C)=O)c(OC)c1`, for which the Kd was > 4 mM (inactive). Next, `COc1cccc(C(=O)N2CCOCC2)c1`: > 4 mM (inactive); `c1ccc2c(c1)CN1CCCC1=N2`: > 4 mM (inactive); `NNc1ncnc2sccc12`: > 4 mM (inactive).

With `Cc1scc(C(=O)Nc2ccon2)c1-c1ccccc1`, the Kd was > 4 mM (inactive).

As to `CN(C)C(=O)c1ccc(-c2n[nH]c(=O)c3ccccc23)cc1`, the Kd is > 4 mM (inactive). In the case of `CCCCCc1c2c(cc(O)c1C(=O)O)OC(=O)c1c(cc(OC)cc1C(=O)CCCC)O2` it was > 4 mM (inactive). Next, `CC(=O)Nc1ccc(S(=O)(=O)N2CCN=C2C)cc1`: > 4 mM (inactive); `O=C(CSC1=NCCS1)N1CCc2ccccc21`: > 4 mM (inactive); `O=C(O)c1[nH]nc2c1COc1ccccc1-2`: > 4 mM (inactive). Next, `O=C(O)Cn1cc(C(F)(F)F)ccc1=O`: > 4 mM (inactive).

`CNC(=S)N1CCN=C1Nc1nc(C)cc(C)n1`: the Kd is > 4 mM (inactive). In the case of `O=C(O)c1ccc2c(c1)OCO2` it was > 4 mM (inactive).

Regarding `Cc1csc2nc(=O)c3ccccc3n12`, the Kd was > 4 mM (inactive). In the case of `O=C(COc1ccc(F)cc1)N1CCOCC1` it was “inactive”. Next, `O=C1CSC(=O)N1CN1CCOCC1`: > 4 mM (inactive); `CC(=O)c1cnc2nc(C(F)(F)F)nn2c1C`: > 4 mM (inactive). In the case of `CC(=O)Nc1ccc(N2CCOCC2)cc1` it was > 4 mM (inactive); in that of `N#CCc1nc2ccccc2s1`, > 4 mM (inactive). As for `COc1ccc(/C=C/c2cc(O)cc(O)c2)cc1`, the Kd was > 4 mM (inactive). In the case of `OC(CCl)c1ccc(-n2cncn2)cc1` (stereo unspecified) it was > 4 mM (inactive); in that of `CC(C)n1c(-c2ccncc2)n[nH]c1=S`, > 4 mM (inactive).

In the case of `O=C(CSc1cccc2cccnc12)N1CCOCC1`, the Kd entry is “inactive”. In the case of `Cc1ccc(CCC(N)=O)o1` it was > 4 mM (inactive); in that of `Cc1nnsc1C(=O)Nc1ccccc1[N+](=O)[O-]`, > 4 mM (inactive).

On to `Cc1cc(C)n(S(=O)(=O)c2ccc(C(C)(C)C)cc2)n1`, for which the Kd is > 4 mM (inactive). Next, `O=C(O)Cn1cnc2ccccc2c1=O`: > 4 mM (inactive). Take `N#Cc1cccc(Cn2nnc(-c3ccccc3)n2)c1`: the Kd was > 4 mM (inactive). In the case of `N#CCCn1ccnc1-c1ccccc1` it was > 4 mM (inactive); in that of `O=C(Cc1c(F)cccc1Cl)Nc1ccon1`, > 4 mM (inactive). In the case of `CN1CCN(c2cc(=O)n(C)c(=O)[nH]2)CC1` it was > 4 mM (inactive). Take `Nc1cccc2c(=O)[nH][nH]c(=O)c12`: the Kd was > 4 mM (inactive). In the case of `Cc1cc2c(=O)n(C)c(SCC(N)=O)nc2s1` it was > 4 mM (inactive); in that of `S=c1nc2c(n[nH]1)[nH]c1ccccc12`, > 4 mM (inactive); in that of `CCOC(=O)c1c(C)nc2cc(C)ccn12`, > 4 mM (inactive). Next, `CC12CC[C@H](CC1=O)C2(C)C`: > 4 mM (inactive); `O=C(Nc1ccc(Cl)cn1)c1cnn2cccnc12`: > 4 mM (inactive). In the case of `OCc1snnc1-c1ccccc1` it was > 4 mM (inactive); in that of `NCc1cccc2nsnc12`, > 4 mM (inactive). `CC(=O)O[C@H]1CCC2(C)C3=C(CCC2C1(C)C)[C@]1(C)CCC(C(C)CCC=C(C)C)[C@@]1(C)CC3` (stereo partly specified): the Kd was > 4 mM (inactive). Regarding `CC1CCN(C(=O)c2ccc(NS(C)(=O)=O)cc2)CC1`, the Kd is > 4 mM (inactive). On to `Cc1cc(C(=O)Nc2ccccn2)no1`, for which the Kd is > 4 mM (inactive). In the case of `NC(=O)C1(c2ccccc2)CCOCC1` it was > 4 mM (inactive).

Take `O=C(NCc1ccccc1)c1cnsn1`: the Kd was > 4 mM (inactive). In the case of `O=C(OCc1c(Cl)cccc1Cl)c1cnccn1` it was > 4 mM (inactive). `CCn1nnc2c(NCc3ccccn3)ncnc21`: the Kd is > 4 mM (inactive). `O=C1c2ccccc2C(=O)N1Cc1ccco1`: the Kd is > 4 mM (inactive). In the case of `O=C1NC(=Nc2ccccc2)S/C1=C/c1cccnc1` it was > 4 mM (inactive). In the case of `Nc1c(F)c(F)nc(F)c1F` it was > 4 mM (inactive); in that of `c1ccc2c(c1)ncn2CCn1cnc2ccccc21`, > 4 mM (inactive); in that of `O=C1NC(=S)N/C1=C\c1ccccc1F`, > 4 mM (inactive). Next, `O=C(Nc1c[nH]c(=O)[nH]c1=O)c1ccccc1F`: > 4 mM (inactive); `O=C1Cc2ccccc2N1c1ccccc1`: > 4 mM (inactive). Regarding `NC(=O)c1cccc(N2C(=O)C=CC2=O)c1`, the Kd is > 4 mM (inactive).

Regarding `COc1c2ccoc2cc2oc(C)cc(=O)c12`, the Kd is > 4 mM (inactive). With `O=C1CCCN1C(=O)CN1CCOCC1`, the Kd was > 4 mM (inactive). Next, `Cc1n[nH]c(=O)nc1N1CCN(c2ccccc2)CC1`: > 4 mM (inactive). Next, `Cc1ccc(-c2nnn(CC(=O)O)n2)cc1`: > 4 mM (inactive); `CC(=O)O[C@@H]1CC2C(C)(C)C(=O)C=C[C@]2(C)C2CC[C@]3(C)C(=CC(=O)O[C@H]3c3ccoc3)[C@@]21C` (stereo partly specified): > 4 mM (inactive).

Take `COC(=O)c1oc2ccc(Cl)cc2c1NC(C)=O`: the Kd is > 4 mM (inactive). In the case of `O=C(O)C1CSC(c2ccccc2)N1` (stereo unspecified) it was > 4 mM (inactive); in that of `Oc1cccc(N2CCOCC2)c1`, > 4 mM (inactive); in that of `COC(=O)CSc1nnc(-c2ccc(C(=O)O)cc2)o1`, > 4 mM (inactive). In the case of `Cn1c(NCc2ccco2)nc2ccccc21` it was > 4 mM (inactive); in that of `O=C(O)c1cc(=O)c2cccc(O)c2[nH]1`, > 4 mM (inactive). Next, `Cc1cc(C(=O)Nn2cnnc2)cs1`: > 4 mM (inactive); `NC(=S)NC1CCS(=O)(=O)C1` (stereo unspecified): > 4 mM (inactive); `OCc1ccncc1`: > 4 mM (inactive). As to `Nc1cc(=O)[nH]c(SCC(=O)Nc2nccs2)n1`, the Kd is > 4 mM (inactive). In the case of `NC(=O)C1CCN(CN2C(=O)c3ccccc3C2=O)CC1` it was > 4 mM (inactive); in that of `Cc1occc1C(=O)Nc1nnc(-c2ccncc2)s1`, > 4 mM (inactive). In the case of `NC(=O)C1CCCN1S(=O)(=O)c1ccc(F)cc1` (stereo unspecified) it was > 4 mM (inactive). Next, `Cc1nc2nc(Cc3ccccc3)[nH]n2c(=O)c1Cl`: > 4 mM (inactive); `C[C@@H]1CC[C@H]2[C@@H](C)C(=O)O[C@@H]3OC4(C)CC[C@@H]1[C@]32OO4`: > 4 mM (inactive); `Cc1cc(NC(=O)Cc2cccs2)no1`: > 4 mM (inactive). Regarding `CCOc1ccc(NS(=O)(=O)N2CCOCC2)cc1`, the Kd is > 4 mM (inactive).
